Measured values: publication PMC11356900, “Synthesis, Structural Properties and Biological Activities of Novel Hydrazones of 2-, 3-, 4-Iodobenzoic Acid” (Molecules, 2024)
≈ marks a conversion by molar mass, not a printed value.

Legend:
Candida spp. = assay: Broth microdilution, summary over reference yeasts; assay type: cell-based; conditions: for MFC / MIC / MFC/MIC: range over the reference Candida spp. strains; for antifungal activity in words: reference yeasts from Candida spp.
Method in brief: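 Following EUCAST and CLSI guidance, growth inhibition is measured in broth across final compound levels of 1000 down to 0.488 µg/mL. Cidal endpoints come from spotting each well onto agar; three independent repeats.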

L929 cell line = assay: MTT cytotoxicity assay; assay type: cell-based, mouse; conditions: for cytotoxicity: L929, 24 h culture
Method: Among all the newly synthesized compounds, four compounds designated as: 14, 20, 21 and 27 were selected for further testing of their cytotoxic properties at the doses of 10, 25, 50, 75 and 100 µM. The cytotoxic properties of the above compounds were tested on the cancer cell lines, i.e., A549 (ECACC 86012804) (non-small-cell lung cancer), T47D (ECACC 85102201) (breast cancer), HeLa (ATCC® CCL-2™) (cervical cancer) and normal line L929 (NCTC clone 929, ATCC® CCL-1™) (mouse fibroblasts) using the MTT test for 24- and 48 h cultures.
A549 (ECACC 86012804) (non-small-cell lung cancer) and T47D (ECACC 85102201) (breast cancer) were obtained from ECACC and propagated in Dulbecco’s Minimal Essential Medium, supplemented with 2 mM of glutamine, antibiotics ([…] streptomycin, 1% of 100 U/L penicillin) and 10% Fetal Bovine Serum. HeLa (ATCC® CCL-2™) (cervical cancer) and L929 (NCTC clone 929, ATCC® CCL-1™) (mouse fibroblasts) cell lines were obtained from ATCC and propagated in the Eagle Minimal Essential Medium supplemented with antibiotics ([…] streptomycin, 1% of 100 U/L penicillin) and with 10% and 5% FBS, respectively. The cell line was routinely grown in 75 cm^2 tissue culture flasks and kept in an incubator (humidified atmosphere of 5% CO2 at 37 °C). All examined cell lines were tested against mycoplasma contamination with microbiological assays.
The cell viability of tested compounds (14, 20, 21 and 27) was assessed by the MTT assay. In brief, the exponentially growing cells were plated in 100 μL/well in 96-well plates. After 24 h culturing, the cells were treated with different concentrations of compounds (range 10–100 μM). After 24 and 48 h of incubation, 10 μL of 5 mg/mL MTT was added to each well and the plates were incubated at 37 °C for additional 4 h. The medium was subsequently removed, the purple-colored precipitates of formazan were dissolved in 100 μL of DMSO. The color absorbance was recorded at 570 nm using a BioTek model EPOCH ELISA plate reader. All experiments were performed in triplicate. The absorbance values were in the range of linearity of the Lambert–Beer law.

[1] = tested on: Bordetella bronchiseptica ATCC 4617; assay: Broth microdilution MIC/MBC; conditions: ATCC4617

Structure (SMILES)	MIC (Candida spp.) [µg/mL]	antifungal activity in words (Candida spp.)	cell proliferation (L929 cell line; L929, 24h, 10 µM, Repeat No 1) [%]	cell proliferation (L929 cell line; L929, 24h, 10 µM, Repeat No 2) [%]	cell proliferation (L929 cell line; L929, 24h, 25 µM, Repeat No 1) [%]	cell proliferation (L929 cell line; L929, 24h, 25 µM, Repeat No 2) [%]	cell proliferation (L929 cell line; L929, 24h, 50 µM, Repeat No 1) [%]	cell proliferation (L929 cell line; L929, 24h, 50 µM, Repeat No 2) [%]	cell proliferation (L929 cell line; L929, 24h, 75 µM, Repeat No 1) [%]	cell proliferation (L929 cell line; L929, 24h, 75 µM, Repeat No 2) [%]	cell proliferation (L929 cell line; L929, 24h, 100 µM, Repeat No 1) [%]	cell proliferation (L929 cell line; L929, 24h, 100 µM, Repeat No 2) [%]	cytotoxicity (L929 cell line; tested doses 10–100 µM)	cell proliferation (L929 cell line; L929, 48h, 10 µM, Repeat No 1) [%]	cell proliferation (L929 cell line; L929, 48h, 10 µM, Repeat No 2) [%]	cell proliferation (L929 cell line; L929, 48h, 25 µM, Repeat No 1) [%]	cell proliferation (L929 cell line; L929, 48h, 25 µM, Repeat No 2) [%]	cell proliferation (L929 cell line; L929, 48h, 50 µM, Repeat No 1) [%]	cell proliferation (L929 cell line; L929, 48h, 50 µM, Repeat No 2) [%]	cell proliferation (L929 cell line; L929, 48h, 75 µM, Repeat No 1) [%]	also measured
O=C(N/N=C/c1cc(I)cc(I)c1O)c1ccccc1I [Compound 14, N-[(3,5-diiodo-2-hydroxyphenyl)methylidene]-2-iodobenzohydrazide]	250 to 1000 (≈ 405 to 1620 µM)	moderate or mild	94	94	100	89	85	73	77	69	91	97	approximately 20%	75	99	106	99	83	98	83	MFC (Candida spp.): ≥ 1000 µg/mL; cytotoxicity (L929 cell line; dose of 75 µM): around 40%; cell proliferation (L929 cell line; L929, 48h, 75 µM, Repeat No 2): 89%; cell proliferation (L929 cell line; L929, 48h, 100 µM, Repeat No 1): 94%; cell proliferation (L929 cell line; L929, 48h, 100 µM, Repeat No 2): 101%
O=C(N/N=C/c1cc(Cl)cc(I)c1O)c1cccc(I)c1 [Compound 20, N-[(5-chloro-2-hydroxy-3-iodophenyl)methylidene]-3-iodobenzohydrazide]	125 to 500 (≈ 237 to 950 µM)	good and moderate	99	104	89	95	87	112	103	96	86	94	approximately 20%	91	102	88	93	94	99	94	MFC/MIC (Candida spp.): > 4; MBC [1]: > 1000 µg/mL; MBC/MIC [1]: > 2; MIC [1]: 500 µg/mL (≈ 950 µM); cell proliferation (L929 cell line; L929, 48h, 75 µM, Repeat No 2): 99%; cell proliferation (L929 cell line; L929, 48h, 100 µM, Repeat No 1): 87%; cell proliferation (L929 cell line; L929, 48h, 100 µM, Repeat No 2): 84%
O=C(N/N=C/c1cc(Br)cc(Br)c1O)c1cccc(I)c1 [Compound 21, N-[(3,5-dibromo-2-hydroxyphenyl)methylidene]-3-iodobenzohydrazide]	125 to 500 (≈ 239 to 954 µM)	good and moderate	96	102	101	97	100	106	118	109	89	96	approximately 20%	94	98	89	97	89	88	104	MFC/MIC (Candida spp.): > 4; MIC [1]: > 1000 µg/mL; cell proliferation (L929 cell line; L929, 48h, 75 µM, Repeat No 2): 96%; cell proliferation (L929 cell line; L929, 48h, 100 µM, Repeat No 1): 89%; cell proliferation (L929 cell line; L929, 48h, 100 µM, Repeat No 2): 84%
O=C(N/N=C/c1cc(Cl)cc(I)c1O)c1ccc(I)cc1 [Compound 27, N-[(5-chloro-2-hydroxy-3-iodophenyl)methylidene]-4-iodobenzohydrazide]	31.2 to 62.5 (≈ 59.4 to 119 µM)	good (good bioactivity as a MIC in the range 26 – 125 µg/mL)	101	89	96	92	95	81	103	107	92	91	approximately 20%	92	89	95	99	92	91	99	MFC (Candida spp.): 62.5 µg/mL (≈ 119 µM); MFC/MIC (Candida spp.): 1–2; MBC [1]: 1000 µg/mL (≈ 1900 µM); MBC/MIC [1]: 2; MIC [1]: 500 µg/mL (≈ 950 µM); cell proliferation (L929 cell line; L929, 48h, 75 µM, Repeat No 2): 92%; cell proliferation (L929 cell line; L929, 48h, 100 µM, Repeat No 1): 87%; cell proliferation (L929 cell line; L929, 48h, 100 µM, Repeat No 2): 92%
